Laboratory results published in ChEMBL document CHEMBL3351479, “Novel acylureidoindolin-2-one derivatives as dual Aurora B/FLT3 inhibitors for the treatment of acute myeloid leukemia” (Eur J Med Chem, 2014).

What was measured:
[1] = tested on: MV4-11; experiment: Cytotoxicity against human MV4-11 cells assessed as cell viability after 48 hrs by MTT assay; type: functional, cell-based
[2] = tested on: MOLM-13; experiment: Cytotoxicity against human MOLM13 cells assessed as cell viability after 48 hrs by MTT assay; type: functional, cell-based; conditions: MOLM-13, 48 h
[3] = tested on: THP-1; experiment: Cytotoxicity against human THP1 cells assessed as cell viability at 1 uM after 48 hrs by MTT assay; type: functional; conditions: THP-1, 48 h, read-out: Activity
[4] = molecular target: T1, Aurora kinase B (Homo sapiens, UniProt Q96GD4); experiment: Inhibition of Aurora B (unknown origin) using HLRRASLG substrate at 1 uM
T1 sequence (Q96GD4 whole entry): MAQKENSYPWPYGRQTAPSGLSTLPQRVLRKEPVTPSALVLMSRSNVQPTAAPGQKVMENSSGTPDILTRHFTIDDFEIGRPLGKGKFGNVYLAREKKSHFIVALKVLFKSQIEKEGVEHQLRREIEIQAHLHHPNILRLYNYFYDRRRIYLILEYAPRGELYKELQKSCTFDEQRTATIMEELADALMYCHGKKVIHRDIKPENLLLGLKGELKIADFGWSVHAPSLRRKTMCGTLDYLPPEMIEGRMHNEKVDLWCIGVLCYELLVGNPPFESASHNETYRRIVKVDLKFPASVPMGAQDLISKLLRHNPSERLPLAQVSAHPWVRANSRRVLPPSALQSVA

[5] = Cytotoxicity against human HL60 cells assessed as cell viability at 1 uM after 48 hrs by MTT assay; type: functional; conditions: HL-60, 48 h, read-out: Activity
[6] = tested on: THP-1; experiment: Cytotoxicity against human THP1 cells assessed as cell viability after 48 hrs by MTT assay; type: functional, cell-based
[7] = Cytotoxicity against human HL60 cells assessed as cell viability after 48 hrs by MTT assay; type: functional, cell-based; conditions: HL-60, 48 h
[8] = tested on: MV4-11; experiment: Cytotoxicity against human MV4-11 cells assessed as cell viability at 1 uM after 48 hrs by MTT assay; type: functional; conditions: MV4-11, 48 h, read-out: Activity
[9] = tested on: MOLM-13; experiment: Cytotoxicity against human MOLM13 cells assessed as cell viability at 1 uM after 48 hrs by MTT assay; type: functional; conditions: MOLM-13, 48 h, read-out: Activity
[10] = molecular target: Receptor-type tyrosine-protein kinase FLT3 (Homo sapiens) (UniProt P36888); experiment: Inhibition of FLT3 (unknown origin) using EAIYAAPFAKKK substrate at 1 uM
[11] = Ratio of solubility in PBS to solubility in DMSO; type: physicochemical
[12] = Permeability coefficient of the compound at pH 7.4 by PAMPA-GIT assay; type: ADME; conditions: read-out: Peff
[13] = molecular target: T2, Receptor-type tyrosine-protein kinase FLT3 (Homo sapiens, UniProt P36888); experiment: Inhibition of FLT3 (unknown origin) using EAIYAAPFAKKK substrate
T2 sequence (P36888 whole entry): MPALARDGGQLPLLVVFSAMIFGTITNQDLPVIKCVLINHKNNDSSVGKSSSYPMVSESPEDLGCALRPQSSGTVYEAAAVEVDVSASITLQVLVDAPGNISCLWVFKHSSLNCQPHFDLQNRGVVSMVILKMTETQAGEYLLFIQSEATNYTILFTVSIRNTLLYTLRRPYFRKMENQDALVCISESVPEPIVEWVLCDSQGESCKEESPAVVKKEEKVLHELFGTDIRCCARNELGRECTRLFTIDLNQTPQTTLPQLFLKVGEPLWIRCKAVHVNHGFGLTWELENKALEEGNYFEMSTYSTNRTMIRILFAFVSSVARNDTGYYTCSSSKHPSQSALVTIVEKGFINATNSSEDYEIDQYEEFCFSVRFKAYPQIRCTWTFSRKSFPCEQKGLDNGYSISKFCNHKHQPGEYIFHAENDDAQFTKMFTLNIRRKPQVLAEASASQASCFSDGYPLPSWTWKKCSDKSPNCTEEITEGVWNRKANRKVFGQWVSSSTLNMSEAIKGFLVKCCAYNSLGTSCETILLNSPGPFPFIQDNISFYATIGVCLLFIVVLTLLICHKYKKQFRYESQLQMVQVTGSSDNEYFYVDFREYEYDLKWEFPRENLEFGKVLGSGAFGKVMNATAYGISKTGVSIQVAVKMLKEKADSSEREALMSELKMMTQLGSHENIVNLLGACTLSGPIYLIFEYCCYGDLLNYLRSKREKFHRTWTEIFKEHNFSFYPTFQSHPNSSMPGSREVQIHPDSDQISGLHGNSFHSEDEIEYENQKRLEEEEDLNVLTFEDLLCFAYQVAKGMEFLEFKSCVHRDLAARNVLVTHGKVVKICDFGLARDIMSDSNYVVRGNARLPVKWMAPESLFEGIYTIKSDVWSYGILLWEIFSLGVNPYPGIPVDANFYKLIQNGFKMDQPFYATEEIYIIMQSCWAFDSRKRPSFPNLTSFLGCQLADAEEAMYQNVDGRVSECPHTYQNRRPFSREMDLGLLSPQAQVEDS

[14] = molecular target: T1, Aurora kinase B; experiment: Inhibition of Aurora B (unknown origin) using HLRRASLG substrate

SMILES	IC50 ([1]; Homo sapiens, MV4-11, 48 h) [nM]	IC50 [2] [nM]	viability at 1 µM [3] [%]	inhibition [4] [%]	viability at 1 µM [5] [%]	IC50 ([6]; Homo sapiens, THP-1, 48 h) [nM]	IC50 [7] [nM]	viability at 1 µM [8] [%]	viability at 1 µM [9] [%]	inhibition [10] [%]	Ratio [11]	Papp [12] [×10⁻⁶ cm/s]	IC50 [13] [nM]	IC50 [14] [nM]	IC50 ([1]; mv4-11) [nM]	IC50 ([6]; thp-1) [nM]
COc1ccc(C(=O)NC(=O)Nc2ccc3c(c2)NC(=O)/C3=C/c2ccco2)cc1	> 500	> 500	74	44	64	> 500	> 500	70	62	15	–	–	–	–	–	–
COc1ccc(C(=O)NC(=O)Nc2ccc3c(c2)NC(=O)/C3=C/c2ccc(Cl)cc2)cc1	> 500	> 500	83	13	77	> 500	> 500	97	101	6	–	–	–	–	–	–
COc1ccc(C(=O)NC(=O)Nc2ccc3c(c2)NC(=O)/C3=C\c2[nH]c(C)c(C(=O)O)c2C)cc1	12	9	–	–	–	78.4	15.8	–	–	–	0.32	0.23	–	–	–	–
COc1ccc(C(=O)NC(=O)Nc2ccc3c(c2)NC(=O)/C3=C/c2ccc(O)cc2)cc1	377	351	54	63	–	> 500	485	–	–	–	–	–	> 1000	–	–	–
CCOC(=O)c1c(C)[nH]c(/C=C2\C(=O)Nc3cc(NC(=O)NC(=O)c4ccc(OC)cc4F)ccc32)c1C	11.3	9.8	–	–	–	74	13	–	–	–	–	–	> 1000	> 1000	–	–
COc1ccc(C(=O)NC(=O)Nc2cc3c(cc2F)/C(=C/c2[nH]c(C)c(C(=O)O)c2C)C(=O)N3)cc1	34.6	25.3	–	–	–	81.2	32.2	–	–	–	0.58	2.46	–	–	–	–
COc1ccc(C(=O)NC(=O)Nc2ccc3c(c2)NC(=O)/C3=C\c2[nH]c(C)c(-c3ccccc3)c2C)cc1	> 500	> 500	73	–	65	> 500	> 500	51	51	–	–	–	–	> 1000	–	–
COc1ccc(C(=O)NC(=O)Nc2ccc3c(c2)NC(=O)/C3=C/c2ccccn2)cc1	> 500	> 500	85	29	80	> 500	> 500	60	62	–	–	–	> 1000	–	–	–
COc1ccc(C(=O)NC(=O)Nc2cc3c(cc2F)/C(=C/c2[nH]c(C)c(CCC(=O)O)c2C)C(=O)N3)cc1	26.1	30.1	–	–	–	64.7	28.8	–	–	–	–	–	> 1000	–	–	–
COc1ccc(C(=O)NC(=O)Nc2ccc3c(c2)NC(=O)/C3=C/c2cccc(C(=O)O)c2)cc1	> 500	291	71	73	59	> 500	> 500	57	53	21	–	–	–	–	–	–
COc1ccc(C(=O)NC(=O)Nc2ccc3c(c2)NC(=O)/C3=C\c2[nH]c(C)c(C(=O)O)c2C)c(F)c1	5.3	5.2	–	–	–	79.5	6.4	–	–	–	0.58	2.49	–	–	–	–
CCOC(=O)CCc1c(C)[nH]c(/C=C2\C(=O)Nc3cc(NC(=O)NC(=O)c4ccc(OC)cc4F)ccc32)c1C	15.1	10.9	–	–	–	53.9	29.9	–	–	–	–	–	> 1000	–	–	–
COc1ccc(C(=O)NC(=O)Nc2ccc3c(c2)NC(=O)/C3=C/c2ccc(Cl)c(Cl)c2)cc1	> 500	> 500	68	9	63	> 500	> 500	71	69	19	–	–	–	–	–	–
O=C(NC(=O)c1ccccc1)Nc1ccc2c(c1)NC(=O)/C2=C\c1ccc[nH]1	240	238	–	–	–	293	250	–	–	–	–	–	> 1000	–	–	–
COc1cc(OC)cc(C(=O)NC(=O)Nc2ccc3c(c2)NC(=O)/C3=C\c2ccc[nH]2)c1	150	114	–	–	–	300	251	–	–	–	–	–	> 1000	–	–	–
COc1ccc(C(=O)NC(=O)Nc2ccc3c(c2)NC(=O)/C3=C/c2ccccc2)cc1	> 500	> 500	76	61	64	> 500	> 500	64	73	34	–	–	–	–	–	–
COc1ccc(C(=O)NC(=O)Nc2ccc3c(c2)NC(=O)/C3=C\c2[nH]c(C)c(CCC(=O)O)c2C)cc1	5.3	5.2	–	–	–	52.8	6.4	–	–	–	0.57	–	–	–	–	–
COc1ccc(C(=O)NC(=O)Nc2ccc3c(c2)NC(=O)/C3=C/c2cccs2)cc1	292	> 500	–	–	–	375	300	–	–	–	–	–	> 1000	21.5	–	–
COc1ccc(C(=O)NC(=O)Nc2ccc3c(c2)NC(=O)/C3=C/c2ccncc2)cc1	> 500	> 500	96	7	95	> 500	> 500	72	65	4	–	–	–	–	–	–
COc1ccc(C(=O)NC(=O)Nc2ccc3c(c2)NC(=O)/C3=C\c2[nH]c(C)c(C(=O)NCCN3CCCC3)c2C)c(F)c1.CS(=O)(=O)O	–	–	–	–	–	–	–	–	–	–	0.97	–	–	–	2	32.2
